From PubChem BioAssay (NCI)
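The compound was tested at five concentrations on cells cultured in 96-well plates, with a 48-hour exposure period. TGI: total growth inhibition.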

How the values were obtained:
Assay in all cases: NCI-60 cell line screen, 48 h
SK-OV-3 ovarian = tested on: SK-OV-3 ovarian
HT29 colon = tested on: HT29 colon
HCT-116 colon = tested on: HCT-116 colon
SK-MEL-28 melanoma = tested on: SK-MEL-28 melanoma
OVCAR-8 ovarian = tested on: OVCAR-8 ovarian
XF 498 CNS = tested on: XF 498 CNS
DLD-1 colon = tested on: DLD-1 colon
OVCAR-3 ovarian = tested on: OVCAR-3 ovarian
UO-31 renal = tested on: UO-31 renal
KM20L2 colon = tested on: KM20L2 colon
NCI-H522 lung = tested on: NCI-H522 lung
SF-539 CNS = tested on: SF-539 CNS
OVCAR-4 ovarian = tested on: OVCAR-4 ovarian
LXFL 529 NSCLC = tested on: LXFL 529 NSCLC
KM12 colon = tested on: KM12 colon
SW-620 colon = tested on: SW-620 colon
HL-60(TB) leukemia = tested on: HL-60(TB) leukemia
MOLT-4 leukemia = tested on: MOLT-4 leukemia
HCT-15 colon = tested on: HCT-15 colon
M14 melanoma = tested on: M14 melanoma
DMS 273 small cell lung = tested on: DMS 273 small cell lung
SK-MEL-2 melanoma = tested on: SK-MEL-2 melanoma
NCI-H226 lung = tested on: NCI-H226 lung
SNB-75 CNS = tested on: SNB-75 CNS
SK-MEL-5 melanoma = tested on: SK-MEL-5 melanoma
SNB-19 CNS = tested on: SNB-19 CNS
OVCAR-5 ovarian = tested on: OVCAR-5 ovarian
MALME-3M melanoma = tested on: MALME-3M melanoma
DMS 114 small cell lung = tested on: DMS 114 small cell lung
NCI-H460 lung = tested on: NCI-H460 lung
A549 NSCLC = tested on: A549 NSCLC
UACC-257 melanoma = tested on: UACC-257 melanoma
HOP-92 NSCLC = tested on: HOP-92 NSCLC
CCRF-CEM leukemia = tested on: CCRF-CEM leukemia
HOP-62 NSCLC = tested on: HOP-62 NSCLC
SF-268 CNS = tested on: SF-268 CNS
HCC-2998 colon = tested on: HCC-2998 colon
ACHN renal = tested on: ACHN renal
IGROV1 ovarian = tested on: IGROV1 ovarian
U251 CNS = tested on: U251 CNS
TK-10 renal = tested on: TK-10 renal
LOX IMVI melanoma = tested on: LOX IMVI melanoma
CAKI-1 renal = tested on: CAKI-1 renal
SR leukemia = tested on: SR leukemia
UACC-62 melanoma = tested on: UACC-62 melanoma
EKVX NSCLC = tested on: EKVX NSCLC
SNB-78 CNS = tested on: SNB-78 CNS
SF-295 CNS = tested on: SF-295 CNS
HOP-18 NSCLC = tested on: HOP-18 NSCLC
RXF 393 renal = tested on: RXF 393 renal

NC(CO)c1ccccc1 (stereo not given)
TGI (SK-OV-3 ovarian): > 100 µM | TGI (HT29 colon): > 100 µM | TGI (HCT-116 colon): > 100 µM | TGI (SK-MEL-28 melanoma): > 100 µM | TGI (OVCAR-8 ovarian): > 100 µM | TGI (XF 498 CNS): > 100 µM | TGI (DLD-1 colon): > 100 µM | TGI (OVCAR-3 ovarian): > 100 µM | TGI (UO-31 renal): > 100 µM | TGI (KM20L2 colon): > 100 µM | TGI (NCI-H522 lung): > 100 µM | TGI (SF-539 CNS): > 100 µM | TGI (OVCAR-4 ovarian): > 100 µM | TGI (LXFL 529 NSCLC): > 100 µM | TGI (KM12 colon): > 100 µM | TGI (SW-620 colon): > 100 µM | TGI (HL-60(TB) leukemia): > 100 µM | TGI (MOLT-4 leukemia): > 100 µM | TGI (HCT-15 colon): > 100 µM | TGI (M14 melanoma): > 100 µM | TGI (DMS 273 small cell lung): > 100 µM | TGI (SK-MEL-2 melanoma): > 100 µM | TGI (NCI-H226 lung): > 100 µM | TGI (SNB-75 CNS): > 100 µM | TGI (SK-MEL-5 melanoma): > 100 µM | TGI (SNB-19 CNS): > 100 µM | TGI (OVCAR-5 ovarian): > 100 µM | TGI (MALME-3M melanoma): > 100 µM | TGI (DMS 114 small cell lung): > 100 µM | TGI (NCI-H460 lung): > 100 µM | TGI (A549 NSCLC): > 100 µM | TGI (UACC-257 melanoma): > 100 µM | TGI (HOP-92 NSCLC): > 100 µM | TGI (CCRF-CEM leukemia): > 100 µM | TGI (HOP-62 NSCLC): > 100 µM | TGI (SF-268 CNS): > 100 µM | TGI (HCC-2998 colon): > 100 µM | TGI (ACHN renal): > 100 µM | TGI (IGROV1 ovarian): > 100 µM | TGI (U251 CNS): > 100 µM | TGI (TK-10 renal): > 100 µM | TGI (LOX IMVI melanoma): > 100 µM | TGI (CAKI-1 renal): > 100 µM | TGI (SR leukemia): > 100 µM | TGI (UACC-62 melanoma): > 100 µM | TGI (EKVX NSCLC): > 100 µM | TGI (SNB-78 CNS): > 100 µM | TGI (SF-295 CNS): > 100 µM | TGI (HOP-18 NSCLC): 96.1 µM | TGI (RXF 393 renal): > 100 µM
